Experimental data from US9221795B2, “Phosphatidylinositol 3-kinase inhibitors” (Gilead Sciences, Inc., priority 2013, dated 2015).

Molecular target: PI3Kδ (Homo sapiens (Human), UniProt O00329)
Experiment: Enzymatic activity of PI3K isoforms, TR-FRET assay (PI3Kδ)
Type: biochemical
Settings: 2× Km ATP, geometric mean if more than one value
Protocol: Enzymatic activity of the class I PI3K isoforms in the presence of the compounds of Table 1 and Compounds X, Y and Z was measured using a time-resolved fluorescence resonance energy transfer (TR-FRET) assay. The TR-FRET assay was used to monitor formation of the product 3,4,5-inositol triphosphate molecule (PIP3) as it competed with fluorescently labeled PIP3 for binding to the GRP-1 pleckstrin homology domain protein. An increase in […] product results in a decrease in TR-FRET signal as the labeled fluorophore is displaced from the GRP-1 protein binding site.
Class I PI3K isoforms were expressed and purified as heterodimeric recombinant proteins. All assay reagents and buffers for the TR-FRET assay were purchased from Millipore. PI3K isoforms were assayed under initial rate conditions in the presence of 25 mM Hepes (pH 7.4), and 2× Km ATP (75-500 μM), 2 μM PIP2, 5% glycerol, 5 mM MgCl2, 50 mM NaCl, 0.05% (v/v) Chaps, 1 mM dithiothreitol, 1% (v/v) DMSO at the following concentrations for each isoforms: PI3Kα, PI3Kβ, and PI3Kδ between 25 and 50 pM, and PI3Kγ at 2 nM. After an assay reaction time of 30 minutes at 25° C., reactions were terminated with a final concentration of 10 mM EDTA, 10 nM labeled-PIP3, and 35 nM Europium labeled GRP-1 detector protein before reading TR-FRET on an Envision plate reader (Ex: 340 nm; Em: 615/665 nm; […] delay and 500 μs read window).
Data were normalized based on positive ([…] wortmanin) and negative (DMSO) controls. α, β, δ, and γ IC50 values were calculated from the fit of the dose-response curves to a four-parameter equation. All IC50 values represent geometric mean values if more than one value was obtained. IC50 values were reported in units of nM.

Chain of PI3Kδ (O00329 whole entry, canonical isoform): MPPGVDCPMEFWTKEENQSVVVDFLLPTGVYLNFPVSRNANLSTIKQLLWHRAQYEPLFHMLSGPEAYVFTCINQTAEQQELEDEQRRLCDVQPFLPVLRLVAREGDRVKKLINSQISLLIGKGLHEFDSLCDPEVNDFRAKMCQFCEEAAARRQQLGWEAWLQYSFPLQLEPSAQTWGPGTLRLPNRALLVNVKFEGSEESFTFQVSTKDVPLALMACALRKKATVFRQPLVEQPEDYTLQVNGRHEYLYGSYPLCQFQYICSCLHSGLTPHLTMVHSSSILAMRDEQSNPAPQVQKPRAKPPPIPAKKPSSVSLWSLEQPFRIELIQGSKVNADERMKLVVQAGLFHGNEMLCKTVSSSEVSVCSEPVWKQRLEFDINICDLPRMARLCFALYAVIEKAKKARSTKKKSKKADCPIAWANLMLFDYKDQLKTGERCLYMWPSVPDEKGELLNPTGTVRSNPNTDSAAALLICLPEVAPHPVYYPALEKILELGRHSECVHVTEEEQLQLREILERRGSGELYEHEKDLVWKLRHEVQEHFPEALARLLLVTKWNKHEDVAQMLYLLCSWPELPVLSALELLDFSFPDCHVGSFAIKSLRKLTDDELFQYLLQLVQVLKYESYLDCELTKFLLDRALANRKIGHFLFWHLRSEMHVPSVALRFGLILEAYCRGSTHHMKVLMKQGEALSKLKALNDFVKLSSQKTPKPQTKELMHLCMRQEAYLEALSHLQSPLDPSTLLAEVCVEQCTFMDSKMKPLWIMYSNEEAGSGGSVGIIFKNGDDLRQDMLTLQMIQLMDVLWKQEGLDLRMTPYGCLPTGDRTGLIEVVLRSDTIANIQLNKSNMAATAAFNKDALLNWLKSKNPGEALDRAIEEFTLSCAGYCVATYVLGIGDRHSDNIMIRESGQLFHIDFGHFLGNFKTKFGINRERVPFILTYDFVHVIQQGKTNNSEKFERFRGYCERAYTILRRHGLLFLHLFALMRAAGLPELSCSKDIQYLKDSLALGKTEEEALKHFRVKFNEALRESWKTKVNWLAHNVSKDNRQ
Chain of PI3Kδ (P27986 whole entry partner, canonical isoform): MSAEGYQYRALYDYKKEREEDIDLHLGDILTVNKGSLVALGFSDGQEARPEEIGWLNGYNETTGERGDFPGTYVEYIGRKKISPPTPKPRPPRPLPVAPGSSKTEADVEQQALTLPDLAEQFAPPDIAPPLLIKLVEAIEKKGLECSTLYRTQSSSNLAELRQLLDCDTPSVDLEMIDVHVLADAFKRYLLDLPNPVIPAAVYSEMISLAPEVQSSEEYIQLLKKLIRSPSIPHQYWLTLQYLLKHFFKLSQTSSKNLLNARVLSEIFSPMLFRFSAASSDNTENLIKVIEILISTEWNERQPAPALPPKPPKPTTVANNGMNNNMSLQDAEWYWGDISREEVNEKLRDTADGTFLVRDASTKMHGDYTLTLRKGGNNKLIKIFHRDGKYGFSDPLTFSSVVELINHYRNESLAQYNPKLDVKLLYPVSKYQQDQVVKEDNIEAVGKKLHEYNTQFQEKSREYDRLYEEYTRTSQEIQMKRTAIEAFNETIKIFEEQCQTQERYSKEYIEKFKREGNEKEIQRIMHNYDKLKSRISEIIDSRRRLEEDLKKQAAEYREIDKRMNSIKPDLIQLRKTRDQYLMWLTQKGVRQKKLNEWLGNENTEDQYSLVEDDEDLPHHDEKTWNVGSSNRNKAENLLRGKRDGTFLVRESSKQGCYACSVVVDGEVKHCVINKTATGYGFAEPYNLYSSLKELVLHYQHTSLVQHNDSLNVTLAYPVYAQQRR

| IC50 [nM] | Structure (SMILES) |
| --- | --- |
| 27 | Cc1ccncc1-n1c([C@H](C)Nc2nc(N)nc(N)c2C#N)nc2cccc(C(F)(F)F)c2c1=O (atropisomer, axis not shown) [Compound 80, (S)-2,4-Diamino-6-((1-(3-(4-methylpyridin-3-yl)-4-oxo-5-(trifluoromethyl)-3,4-dihydroquinazolin-2-yl)ethyl)amino)pyrimidine-5-carbonitrile] |
| 620 | C[C@@H](Nc1nc(N)nc(N)c1C#N)c1nc2c(F)ccc(Cl)c2c(=O)n1-c1cncc(F)c1 [Compound 113, (R)-2,4-Diamino-6-((1-(5-chloro-8-fluoro-3-(5-fluoropyridin-3-yl)-4-oxo-3,4-dihydroquinazolin-2-yl)ethyl)amino)pyrimidine-5-carbonitrile] |
| 42 | C[C@H](Nc1nc(N)nc(N)c1C#N)c1nc2c(F)ccc(C#N)c2c(=O)n1-c1cncc(F)c1 [Compound 62, (S)-2-(1-((2,6-diamino-5-cyanopyrimidin-4-yl)amino)ethyl)-8-fluoro-3-(5-fluoropyridin-3-yl)-4-oxo-3,4-dihydroquinazoline-5-carbonitrile] |
| 1 | CC[C@H](Nc1nc(N)nc(N)c1C#N)c1nc2c(F)ccc(Br)c2c(=O)n1-c1cccnc1 [Compound 61, (S)-2,4-diamino-6-((1-(5-bromo-8-fluoro-4-oxo-3-(pyridin-3-yl)-3,4-dihydroquinazolin-2-yl)propyl)amino)pyrimidine-5-carbonitrile] |
| 14 | Cc1c(F)cncc1-n1c([C@H](C)Nc2nc(N)nc(N)c2C#N)nc2ccc(F)cc2c1=O (atropisomer, axis not shown) [Compound 76, (S)-2,4-diamino-6-((1-(6-fluoro-3-(5-fluoro-4-methylpyridin-3-yl)-4-oxo-3,4-dihydroquinazolin-2-yl)ethyl)amino)pyrimidine-5-carbonitrile] |
| 510 | Cc1c(F)cncc1-n1c([C@H](C)Nc2nc(N)nc(N)c2C#N)nc2ccc(F)cc2c1=O (atropisomer, axis not shown) [Compound 75, (S)-2,4-diamino-6-((1-(6-fluoro-3-(5-fluoro-4-methylpyridin-3-yl)-4-oxo-3,4-dihydroquinazolin-2-yl)ethyl)amino)pyrimidine-5-carbonitrile] |
| 30 | N#Cc1c(N)nc(N)nc1N[C@H](c1nc2c(C#N)cc(F)cc2c(=O)n1-c1cncc(F)c1)C1CC1 [Compound 56, (S)-2-(Cyclopropyl((2,6-diamino-5-cyanopyrimidin-4-yl)amino)methyl)-6-fluoro-3-(5-fluoropyridin-3-yl)-4-oxo-3,4-dihydroquinazoline-8-carbonitrile] |
| 95 | C[C@H](Nc1nc(N)nc(N)c1Cl)c1nc2cccc(C#N)c2c(=O)n1-c1cccnc1 [Compound 63, (S)-2-(1-((2,6-diamino-5-chloropyrimidin-4-yl)amino)ethyl)-4-oxo-3-(pyridin-3-yl)-3,4-dihydroquinazoline-5-carbonitrile] |
| 3 | Cc1c(F)cncc1-n1c([C@@H](Nc2nc(N)nc(N)c2C#N)C2CC2)nc2c(F)ccc(Cl)c2c1=O (atropisomer, axis not shown) [Compound 66, (S)-2,4-Diamino-6-(((5-chloro-8-fluoro-3-(5-fluoro-4-methylpyridin-3-yl)-4-oxo-3,4-dihydroquinazolin-2-yl)(cyclopropyl)methyl)amino)pyrimidine-5-carbonitrile] |
| 7 | Cc1c(F)cncc1-n1c([C@H](C)Nc2nc(N)nc(N)c2C#N)nc2cccc(F)c2c1=O (atropisomer, axis not shown) [Compound 68, (S)-2,4-diamino-6-((1-(5-fluoro-3-(5-fluoro-4-methylpyridin-3-yl)-4-oxo-3,4-dihydroquinazolin-2-yl)ethyl)amino)pyrimidine-5-carbonitrile] |
| 60 | Cc1c(F)cncc1-n1c([C@@H](Nc2nc(N)nc(N)c2C#N)C2CC2)nc2cccc(Cl)c2c1=O (atropisomer, axis not shown) [Compound 69, (S)-2,4-diamino-6-(((5-chloro-3-(5-fluoro-4-methylpyridin-3-yl)-4-oxo-3,4-dihydroquinazolin-2-yl)(cyclopropyl)methyl)amino)pyrimidine-5-carbonitrile] |
| 61 | C[C@@H](Nc1nc(N)nc(N)c1C#N)c1nc2c(F)ccc(Cl)c2c(=O)n1-c1cccnc1 [Compound 110, (R)-2,4-Diamino-6-((1-(5-chloro-8-fluoro-4-oxo-3-(pyridin-3-yl)-3,4-dihydroquinazolin-2-yl)ethyl)amino)pyrimidine-5-carbonitrile] |
| 34 | Cc1ncc(F)cc1-n1c([C@H](C)Nc2nc(N)nc(N)c2C#N)nc2cccc(Cl)c2c1=O (atropisomer, axis not shown) [Compound 44, (S)-2,4-diamino-6-(1-(5-chloro-3-(5-fluoro-2-methylpyridin-3-yl)-4-oxo-3,4-dihydroquinazolin-2-yl)ethylamino)pyrimidine-5-carbonitrile] |
| 2 | Cc1ccncc1-n1c([C@H](C)Nc2nc(N)nc(N)c2C#N)nc2cccc(C(F)(F)F)c2c1=O (atropisomer, axis not shown) [Compound 79, (S)-2,4-Diamino-6-((1-(3-(4-methylpyridin-3-yl)-4-oxo-5-(trifluoromethyl)-3,4-dihydroquinazolin-2-yl)ethyl)amino)pyrimidine-5-carbonitrile] |
| 67 | C[C@H](Nc1nc(N)nc(N)c1Cl)c1nc2cccc(S(C)(=O)=O)c2c(=O)n1-c1cccnc1 [Compound 49, (S)-2-(1-((2,6-diamino-5-chloropyrimidin-4-yl)amino)ethyl)-5-(methylsulfonyl)-3-(pyridin-3-yl)quinazolin-4(3H)-one] |
| 3 | Cc1c(F)cncc1-n1c([C@@H](Nc2nc(N)nc(N)c2C#N)C2CC2)nc2cccc(Cl)c2c1=O (atropisomer, axis not shown) [Compound 70, (S)-2,4-diamino-6-(((5-chloro-3-(5-fluoro-4-methylpyridin-3-yl)-4-oxo-3,4-dihydroquinazolin-2-yl)(cyclopropyl)methyl)amino)pyrimidine-5-carbonitrile] |
| 14 | CC(C)C[C@H](Nc1nc(N)nc(N)c1C#N)c1nc2cccc(Cl)c2c(=O)n1-c1cccnc1 [Compound 58, (S)-2,4-Diamino-6-((1-(5-chloro-4-oxo-3-(pyridin-3-yl)-3,4-dihydroquinazolin-2-yl)-3-methylbutyl)amino)pyrimidine-5-carbonitrile] |
| 7 | C[C@H](Nc1nc(N)nc(N)c1Cl)c1nc2cccc(Cl)c2c(=O)n1-c1cncc(F)c1 [Compound 51, (S)-5-Chloro-2-(1-((2,6-diamino-5-chloropyrimidin-4-yl)amino)ethyl)-3-(5-fluoropyridin-3-yl)quinazolin-4(3h)-one] |
| 380 | N#Cc1ccc(F)c2nc([C@@H](Nc3nc(N)nc(N)c3Cl)C3CC3)n(-c3cccnc3)c(=O)c12 [Compound 59, (S)-2-(cyclopropyl((2,6-diamino-5-chloropyrimidin-4-yl)amino)methyl)-8-fluoro-4-oxo-3-(pyridin-3-yl)-3,4-dihydroquinazoline-5-carbonitrile] |
| 0.6 | C[C@H](Nc1nc(N)nc(N)c1C#N)c1nc2c(F)ccc(Br)c2c(=O)n1-c1cccnc1 [Compound 64, (S)-2,4-diamino-6-((1-(5-bromo-8-fluoro-4-oxo-3-(pyridin-3-yl)-3,4-dihydroquinazolin-2-yl)ethyl)amino)pyrimidine-5-carbonitrile] |
| 220 | Cc1c(F)cncc1-n1c([C@@H](C)Nc2nc(N)nc(N)c2C#N)nc2cccc(Cl)c2c1=O (atropisomer, axis not shown) [Compound 114, (R)-2,4-diamino-6-((1-(5-chloro-3-(5-fluoro-4-methylpyridin-3-yl)-4-oxo-3,4-dihydroquinazolin-2-yl)ethyl)amino)pyrimidine-5-carbonitrile] |
| 120 | Cc1c(F)cncc1-n1c([C@H](C)Nc2nc(N)nc(N)c2C#N)nc2cccc(F)c2c1=O (atropisomer, axis not shown) [Compound 67, (S)-2,4-diamino-6-((1-(5-fluoro-3-(5-fluoro-4-methylpyridin-3-yl)-4-oxo-3,4-dihydroquinazolin-2-yl)ethyl)amino)pyrimidine-5-carbonitrile] |

| Structure (SMILES) | IC50 [nM] |
| --- | --- |
| C[C@H](Nc1nc(N)nc(N)c1Cl)c1nc2cccc(Cl)c2c(=O)n1-c1cccnc1 [Compound 53, (S)-5-Chloro-2-(1-((2,6-diamino-5-chloropyrimidin-4-yl)amino)ethyl)-3-(pyridin-3-yl)quinazolin-4(3H)-on] | 4 |
| C[C@H](Nc1nc(N)nc(N)c1Cl)c1nc2cccc(F)c2c(=O)n1-c1cccnc1 [Compound 52, (S)-2-(1-((2,6-Diamino-5-chloropyrimidin-4-yl)amino)ethyl)-5-fluoro-3-(pyridin-3-yl)quinazolin-4(3H)-one] | 63 |
